Patent publication US20140343095A1, “Methods of Diagnosing and Treating Multiple Sclerosis” (The Brigham and Women's Hospital, Inc., priority 2009, published 2014)
“Also recorded” adds a separate entry of the source.

Key:
PARP-1 [1] = molecular target: T1, PARP-1 (Homo sapiens, UniProt P09874); conditions: Diestel et al. 2003; cited from earlier work
Target sequence in this assay (P09874 whole entry, species assumed): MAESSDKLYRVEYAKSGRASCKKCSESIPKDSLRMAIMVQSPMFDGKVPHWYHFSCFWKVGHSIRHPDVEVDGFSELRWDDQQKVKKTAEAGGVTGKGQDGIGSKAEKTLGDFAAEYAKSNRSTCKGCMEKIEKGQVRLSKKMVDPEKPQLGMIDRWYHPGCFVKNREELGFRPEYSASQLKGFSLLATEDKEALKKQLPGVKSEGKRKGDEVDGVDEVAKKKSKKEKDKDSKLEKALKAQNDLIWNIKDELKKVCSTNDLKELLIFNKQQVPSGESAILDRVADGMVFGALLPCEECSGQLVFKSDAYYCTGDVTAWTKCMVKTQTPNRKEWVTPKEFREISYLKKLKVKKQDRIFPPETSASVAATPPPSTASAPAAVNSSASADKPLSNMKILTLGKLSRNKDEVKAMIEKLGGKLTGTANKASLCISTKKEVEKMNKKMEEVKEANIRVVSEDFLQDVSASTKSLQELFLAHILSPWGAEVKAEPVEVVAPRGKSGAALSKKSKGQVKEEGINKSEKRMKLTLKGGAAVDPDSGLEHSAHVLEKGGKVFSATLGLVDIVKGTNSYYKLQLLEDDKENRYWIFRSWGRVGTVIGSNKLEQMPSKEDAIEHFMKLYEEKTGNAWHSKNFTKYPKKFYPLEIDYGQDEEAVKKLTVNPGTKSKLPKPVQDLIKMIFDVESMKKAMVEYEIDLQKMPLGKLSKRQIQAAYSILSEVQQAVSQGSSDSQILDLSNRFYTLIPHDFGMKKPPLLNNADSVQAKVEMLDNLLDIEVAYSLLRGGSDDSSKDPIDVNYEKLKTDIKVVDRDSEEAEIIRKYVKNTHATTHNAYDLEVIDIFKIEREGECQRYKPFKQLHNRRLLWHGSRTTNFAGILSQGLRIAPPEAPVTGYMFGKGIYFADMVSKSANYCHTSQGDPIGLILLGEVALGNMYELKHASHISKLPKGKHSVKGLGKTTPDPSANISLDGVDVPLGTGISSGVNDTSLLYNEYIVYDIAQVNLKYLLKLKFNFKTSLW

PARP-1 [2] = molecular target: T2, PARP-1 (Mus musculus, UniProt P11103); assay: Cellular PARP-1 activity in microglia, macrophages or astrocytes; type: cell-based; parameters: host or cells: C8B4 microglia, C8-D1A astrocytes, Raw 264.7 macrophages
Protocol: 5A, a bar graph showing the time course of microglial PARP-1 activation by 15-oxysterols or 7-KC. PARP-1 activity is shown as Mean±SEM. […] (Mean±SEM) 5C, a bar graph showing activation of microglial PARP-1 by 15-HC in the presence of kinase inhibitors (Mean±SEM).
6A, a set of three bar graphs showing PARP-1 activity in microglia, macrophages or astrocytes activated with 15-HC in the presence of blocking antibodies to TLR2 or TLR4, or isotype controls (Mean±SEM).
PARP-1 activity was measured using PARP HT Universal Colorimetric Kit (Trevigen, MD, USA), following manufacturer instructions.
Cells were cultured with DMEM supplemented with 10% fetal bovine serum, 2 mM L-glutamine, 25 mM HEPES, and 1 mM sodium pyruvate. Cells in logarithmic growth were treated with 1 μg/ml of 15-HC for 1, 5, 15, and 30 minutes in serum-free medium. Blocking antibodies (Ebioscience, San Diego, Calif., USA) were added in some experiments at a final concentration of 10 ug/ml.

[3] = system: NOD mice (experimental SPMS); assay: NOD experimental model of SPMS (MOG35-55 EAE), clinical score and spinal cord histology; type: in vivo, mouse
Protocol: 2A, a line graph showing the results of AIQ treatment when experimental SPMS was induced in ten-week old NOD mice by subcutaneous immunization with […] of MOG35-55 in CFA and Pertussis toxin (150 ng per mouse) given at the time of immunization and 48 hours later. AIQ (3 mg/Kg body weight) was given daily beginning on day 0, n=10 animals per group. A control group was treated with PBS. 2B, a pair of line graphs showing the results of regression analysis of EAE progression (top panel—acute phase, bottom panel—chronic phase). 2C, four images from histopathological analysis of EAE in NOD mice.
This experimental model of SPMS was used to analyze the levels of 15-oxysterols at peak of the acute EAE attack (day 18) and during the progressive phase of EAE (day 55).
150 ng/mouse of pertussis toxin (Sigma) were administered intraperitoneally on days 0 and 2. Clinical signs of EAE were assessed according to the following score: 0, no signs of disease; 1, loss of tone in the tail; 2, hind limb paresis; 3, hind limb paralysis; 4, tetraplegia; 5, moribund.
Image analysis was performed using the software ImageJ (NIH).

splenocytes = assay: Adaptive encephalitogenic recall response of splenocytes from treated mice (proliferation, cytokines); type: in vivo, mouse; conditions: AIQ vs control-treated mice
Protocol: FIG. 7 is a set of eight bar graphs showing that the adaptive encephalitogenic immune response is not affected by the inhibition of PARP-1. Splenocytes prepared from control or AIQ-treated mice were activated in vitro with MOG35-55 (right column) or antibodies to CD3 (left column) and the cytokines levels were tested on the supernatant at 48 hours. Top row, IFN-gamma Second row, IL-17. Third row, IL-10. Bottom row, TGF-beta.
Splenocytes and lymph node cells were cultured in X-VIVO medium and plated at 5×10^5 cells per well in the presence of MOG35-55 for 72 hours. During the last 16 hours, cells were pulsed with 1 μCi of [^3H]-thymidine (PerkinElmer) followed by harvesting on glass fiber filters and analysis of incorporated [^3H]-thymidine in a beta-counter (1450 Microbeta, Trilux; PerkinElmer). Supernatants were collect after 48 h of culture for cytokine measurements by ELISA.

PARP-1 [4] = molecular target: T2, PARP-1
Protocol: Microglia and astrocyte activation have been linked to the progressive phase of experimental SPMS (Basso et al., J Clin Invest 118, 1532-1543 (2008)), thus the activation of PARP-1 was analyzed in the CNS of NOD mice during the progressive phase of EAE.
Spinal cord tissue samples from MOG-immunized NOD mice with or without AIQ treatment were collected at day 55, fixed in 4% paraformaldehyde, cryoprotected in 20% sucrose, and frozen in OCT. Spinal cord frozen sections were cut at 10 μm and processed for histological analysis, immunohistochemistry, or immunofluorescence. […] For image analysis, 3 or 4 lumbar spinal cord sections were selected according to regional landmarks from 4 different animals per group. Image analysis was performed using the software ImageJ (NIH). For quantification, level of labeling “threshold” was used as a cut-off to determine positive or negative staining Immunofluorescence was performed using anti-Iba-1 (Wako, VA, USA), anti-GFAP (BD Bioscience, MA, USA) and anti PAR (Trevigen, MD, USA)

[5] = system: microglia, macrophages or astrocytes; assay: TNF-α, CCL-2 and NO secretion by microglia, macrophages or astrocytes; type: cell-based, mouse; conditions: co-incubation with 15-HC
Protocol: FIGS. 4A-D show the results of activation of microglia, macrophages and astrocytes by 15-HC. 4A, a bar graph showing PARP-1 activity in a cell-free system where recombinant PARP-1 was incubated with DNA which as been pretreated with 15-HC or 7-KC. Non-pretreated DNA was used as a negative control and ssb-DNA as a positive control. Data is shown as Mean±SEM. 4B, a pair of bar graphs showing PARP-1 activity measured in microglia, macrophages or astrocytes incubated with 15-HC or 7-KC. The data is shown as the fold of change between vehicle and lipid-treated cells (Mean±SEM). 4C, a pair of bar graphs showing percent inhibition of PARP-1 activity in microglia, macrophages or astrocytes activated with 15-HC or 7-KC […] in the presence of 5-AIQ. 4D, a table showing levels of TNF-α, CCL-2 and NO secretion by 15-HC or 7-KC treated microglia, macrophages or astrocytes (Mean±SEM).
The effect of 15-HC on the activity of cellular PARP-1 was then investigated. […] Thus, 15-HC activates microglia, macrophages and astrocytes through a PARP-1-dependent mechanism.

PARP-1 [6] = molecular target: T1, PARP-1; assay: FACS-based detection of PARP-1 activity (PAR staining) in human monocytes / PBMCs; type: cell-based; parameters: endogenous in cells; host or cells: human PBMCs / monocytes / dendritic cells / T and B cells from healthy controls and MS patients; conditions: human monocytes activated by 15-HC
Protocol: FIGS. 11A-B are show the results of FACS-based detection of PARP-1 activity. 11A. a set of five histograms showing PAR staining (as detected by FACS) of PBMCs incubated with 15-HC alone, or in combination with AIQ, blocking antibodies to TLR2 (TLR2 BL), or IC control (TLR2 IC). 11B, a line graph showing the correlation of PAR staining as detected by FACS with PARP-1 enzymatic activity detected on PBMCs activated with different concentration of 15-HC.
14A is a set of fifteen histograms showing PAR staining of PBMCs taken from HC (left column), RRMS (center column) or SPMS (right column) patients and unstimulated (top row) or activated with 15-HC alone (second row), or in combination with AIQ (third row), blocking antibodies to TLR2 (fourth row) or IC control (bottom row). 14B is a bar graph showing the mean fluorescence intensity (MFI)±SD of 5 samples/group from the histograms in 14A.
15A is a set of 24 histograms showing PAR staining of PBMCs taken from HC (left column), RRMS (center column) or SPMS (right column) patients and unstimulated (top row) or activated with pgLPS (second row), polyIC (third row), ecLPS (fourth row), flagellin (row 5), imiquimod (row 6), ssRNA (row 7) or CpG (row 8). 15B is a bar graph showing the mean fluorescence intensity (MFI)±SD of 5 samples/group from the histograms in […].
A new FACS-based method was developed to detect PARP-1 activation based on the intracellular detection of the PARP-1 product PAR with specific antibodies. Briefly, the cells were incubated with antibodies to CD16/32 to block unspecific antibody binding, and then stained for surface markers. After washing, the cells were permeabilized with Fix/Perm (BD), and then stained with rabbit anti-PAR antibodies (or control rabbit IgG) for 30′ at 4° C., followed by anti-rabbit PE for 30′ at room temperature. The samples were then analyzed by FACS.
Target sequence in this assay (P09874 whole entry): as the sequence (P09874 whole entry, species assumed) above

PARP-1 [7] = molecular target: T1, PARP-1; assay: PARP-1 enzymatic activity in human PBMCs (PARP HT Universal Colorimetric Kit); type: cell-based; parameters: endogenous in cells; host or cells: human PBMCs / monocytes / dendritic cells / T and B cells from healthy controls and MS patients; conditions: healthy controls, 1 ug/ml 15-HC
Protocol: PARP-1 enzymatic activity (10A) and TNFalpha and CCL2 (10B) of PBMCs incubated with 15-HC alone, or in combination with AIQ, blocking antibodies to TLR2 or IC control.
To investigate whether the TLR2/PARP-1 axis is functional in human we activated PBMCs from healthy controls with 15-HC, in the presence or not of PARP-1 or TLR2 inhibitors.
Target sequence in this assay (P09874 whole entry): as the sequence (P09874 whole entry, species assumed) above

[8] = NOD mice, AIQ 3 mg/Kg body weight daily from day 0, vs PBS
[9] = spinal cord sections, day 55, progressive phase of NOD EAE

T2 sequence (P11103 whole entry): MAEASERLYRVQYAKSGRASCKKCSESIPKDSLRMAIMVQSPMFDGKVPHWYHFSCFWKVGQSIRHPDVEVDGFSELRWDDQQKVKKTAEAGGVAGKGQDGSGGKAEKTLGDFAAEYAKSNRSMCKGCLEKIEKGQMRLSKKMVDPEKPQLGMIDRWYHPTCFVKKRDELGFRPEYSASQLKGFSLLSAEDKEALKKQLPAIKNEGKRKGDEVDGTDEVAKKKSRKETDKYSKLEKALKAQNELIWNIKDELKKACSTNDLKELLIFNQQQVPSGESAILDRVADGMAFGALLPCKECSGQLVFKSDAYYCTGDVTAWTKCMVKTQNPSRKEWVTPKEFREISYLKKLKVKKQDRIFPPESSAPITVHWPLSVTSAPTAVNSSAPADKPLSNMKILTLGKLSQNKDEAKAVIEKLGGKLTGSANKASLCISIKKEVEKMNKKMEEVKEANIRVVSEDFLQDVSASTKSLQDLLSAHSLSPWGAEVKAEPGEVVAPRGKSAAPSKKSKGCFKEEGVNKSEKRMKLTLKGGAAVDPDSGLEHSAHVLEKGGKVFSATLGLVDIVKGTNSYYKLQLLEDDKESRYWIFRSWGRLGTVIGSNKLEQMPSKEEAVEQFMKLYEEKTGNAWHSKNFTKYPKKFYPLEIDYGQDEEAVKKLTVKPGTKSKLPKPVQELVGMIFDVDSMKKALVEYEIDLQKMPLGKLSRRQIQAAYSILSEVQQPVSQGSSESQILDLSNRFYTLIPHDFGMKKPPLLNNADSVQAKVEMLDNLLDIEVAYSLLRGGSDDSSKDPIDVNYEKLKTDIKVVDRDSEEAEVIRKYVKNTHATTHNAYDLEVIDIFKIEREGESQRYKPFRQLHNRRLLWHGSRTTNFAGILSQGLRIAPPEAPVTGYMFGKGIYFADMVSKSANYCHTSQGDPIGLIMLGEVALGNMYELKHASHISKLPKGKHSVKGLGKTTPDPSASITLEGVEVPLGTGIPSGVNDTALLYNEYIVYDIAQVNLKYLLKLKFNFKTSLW

Structure (SMILES) | activation of the nuclear enzyme PARP-1 (PARP-1 [1]) | incubation time resulting in activation of PARP-1 (PARP-1 [2]; macrophages or microglia) | clinical signs of progressive EAE [3, 8] | effect on the acute phase of EAE [3, 8] | axonal loss (Bielschowsky's silver staining) [3, 9] | demyelination (luxol fast blue) [3, 9] | proliferative recall response of splenocytes (splenocytes; activation with MOG35-55 or antibodies to CD3) | profile of cytokine secretion of splenocytes (splenocytes; supernatants at 48 h, IFN-gamma, IL-17, IL-10, TGF-beta) | PARP-1 activity in CNS CD11b+ cells (PARP-1 [4]; cells isolated at day 55 from AIQ or control-treated mice) | PARP-1 activation in CNS (PAR staining) (PARP-1 [4]; progressive phase of NOD EAE, data not shown) | inhibition of 15-HC-induced secretion of NO, CCL-2 and TNF-α [5] | blockade of 15-HC-induced PAR staining (FACS) (PARP-1 [6]) | inhibition of 15-HC-induced PARP-1 enzymatic activity in human PBMCs (PARP-1 [7]) | inhibition of PARP-1 activation by 15-HC (PARP-1 [2]; microglia, macrophages or astrocytes activated with 15-HC)
CC(C)CCC[C@@H](C)[C@H]1CC[C@H]2[C@@H]3C(=O)C=C4C[C@@H](O)CC[C@]4(C)[C@H]3CC[C@]12C [7-KC, 7-ketocholesterol, reference compound] | activate | longer incubation times were required | – | – | – | – | – | – | – | – | – | – | – | –
Nc1cccc2c(=O)[nH]ccc12 [AIQ, 5-aminoisoquinolinone] | – | – | significant inhibition | little or no effect | significant decrease; also recorded: significantly reduced | significant decrease; also recorded: significantly reduced | No statistical differences | no differences | inhibition | decreased | could be inhibited | could be blocked | can be inhibited | could be inhibited
